Results taken from PubChem BioAssay (NCI).
Several values for one entry are separate records, joined by “and”; a condition that tells them apart may be missing. Equal values may be shown once.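 How tested: cells in 96-well plates exposed to compound for 48 hours at five concentrations. GI50: concentration for 50% inhibition of growth. At the TGI there is no net growth.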

Assays:
Test in all cases: growth of human tumour cells (NCI), 48 h
K-562 leukemia = test system: K-562 leukemia
HCT-15 colon = test system: HCT-15 colon
SN12C renal = test system: SN12C renal
MALME-3M melanoma = test system: MALME-3M melanoma
OVCAR-3 ovarian = test system: OVCAR-3 ovarian
HT29 colon = test system: HT29 colon
HS 578T breast = test system: HS 578T breast
HOP-92 NSCLC = test system: HOP-92 NSCLC
RXF 393 renal = test system: RXF 393 renal
UACC-62 melanoma = test system: UACC-62 melanoma

CC1(C)CC(OCCCC[P+](c2ccccc2)(c2ccccc2)c2ccccc2)CC(C)(C)N1O
GI50 (K-562 leukemia): 186 nM | TGI (K-562 leukemia): 18100 nM | GI50 (HCT-15 colon): 2780 nM | TGI (HCT-15 colon): 9120 nM | GI50 (SN12C renal): 306 nM | TGI (SN12C renal): 1180 nM | GI50 (MALME-3M melanoma): 317 nM | TGI (MALME-3M melanoma): 1070 nM | GI50 (OVCAR-3 ovarian): 241 nM | TGI (OVCAR-3 ovarian): 871 nM | GI50 (HT29 colon): 340 nM | TGI (HT29 colon): 7260 nM | GI50 (HS 578T breast): 229 nM | TGI (HS 578T breast): 1030 nM | GI50 (HOP-92 NSCLC): 199 nM | TGI (HOP-92 NSCLC): 903 nM | GI50 (RXF 393 renal): 518 nM | TGI (RXF 393 renal): 2080 nM | GI50 (UACC-62 melanoma): 392 nM | TGI (UACC-62 melanoma): 1640 nM

C#C[C@@]1(O)[C@@H](CO)O[C@@H](n2ccc3c(N)ncnc32)[C@@H]1O
GI50 (K-562 leukemia): 806 nM | TGI (K-562 leukemia): > 100000 nM | GI50 (HCT-15 colon): 892 nM | TGI (HCT-15 colon): 4620 nM | GI50 (SN12C renal): 798 nM | TGI (SN12C renal): 3910 nM | GI50 (MALME-3M melanoma): 1680 nM | TGI (MALME-3M melanoma): 5550 nM | GI50 (OVCAR-3 ovarian): 2960 nM | TGI (OVCAR-3 ovarian): 12000 nM | GI50 (HT29 colon): 970 nM | GI50 (HS 578T breast): 4670 nM | TGI (HS 578T breast): > 100000 nM | GI50 (HOP-92 NSCLC): 2040 nM | TGI (HOP-92 NSCLC): 5560 nM | GI50 (RXF 393 renal): 1930 nM | TGI (RXF 393 renal): 4600 nM | GI50 (UACC-62 melanoma): 1790 nM | TGI (UACC-62 melanoma): 4480 nM

CC1(O)CC2(O)C=CC3=C(C(=O)c4cccc(O)c4C3=O)C2(O)C(=O)C1O (centres undefined)
TGI (K-562 leukemia): 10400 nM | TGI (HCT-15 colon): 2980 nM | TGI (SN12C renal): 6660 nM | TGI (MALME-3M melanoma): 966 nM | TGI (OVCAR-3 ovarian): 5190 nM | TGI (HT29 colon): 5950 nM | TGI (HS 578T breast): 10700 nM | TGI (HOP-92 NSCLC): 2190 nM | TGI (RXF 393 renal): 2130 nM | TGI (UACC-62 melanoma): 6880 nM

CN(C)C(=O)c1cc2cnc(Nc3ccc(-c4csc5c(=O)cc(N6CCNCC6)oc45)cc3)nc2n1C1CCCC1
GI50 (K-562 leukemia): 456 nM | TGI (K-562 leukemia): 4200 nM | GI50 (HCT-15 colon): 1840 nM | TGI (HCT-15 colon): 5790 nM | GI50 (SN12C renal): 557 nM | TGI (SN12C renal): 16800 nM | GI50 (MALME-3M melanoma): 1380 nM | TGI (MALME-3M melanoma): 2940 nM | GI50 (OVCAR-3 ovarian): 871 nM | TGI (OVCAR-3 ovarian): 2720 nM | GI50 (HT29 colon): 438 nM | TGI (HT29 colon): 2990 nM | GI50 (HS 578T breast): 943 nM | TGI (HS 578T breast): 4390 nM | GI50 (HOP-92 NSCLC): 517 nM | TGI (HOP-92 NSCLC): 16500 nM | GI50 (RXF 393 renal): 270 nM | TGI (RXF 393 renal): 1030 nM | GI50 (UACC-62 melanoma): 1440 nM | TGI (UACC-62 melanoma): 8690 nM

CN1CCN(Cc2ccc(NC(=O)c3nc4ccc5[nH]ncc5c4c4c3CCC4)cc2C(F)(F)F)CC1
GI50 (K-562 leukemia): 978 nM | TGI (K-562 leukemia): 2390 nM | GI50 (HCT-15 colon): 870 nM | TGI (HCT-15 colon): 1750 nM | GI50 (SN12C renal): 873 nM | TGI (SN12C renal): 1640 nM | GI50 (MALME-3M melanoma): 800 nM | TGI (MALME-3M melanoma): 1520 nM | GI50 (OVCAR-3 ovarian): 904 nM | TGI (OVCAR-3 ovarian): 1680 nM | GI50 (HT29 colon): 1020 nM | TGI (HT29 colon): 2080 nM | GI50 (HS 578T breast): 833 nM | TGI (HS 578T breast): 1650 nM | GI50 (HOP-92 NSCLC): 3530 nM | TGI (HOP-92 NSCLC): 10600 nM | GI50 (RXF 393 renal): 1190 nM | TGI (RXF 393 renal): 4370 nM | GI50 (UACC-62 melanoma): 1880 nM | TGI (UACC-62 melanoma): 6940 nM

O=C(NNc1ccccc1)OCc1ccccc1
GI50 (K-562 leukemia): 1940 nM | TGI (K-562 leukemia): > 100000 nM | GI50 (HCT-15 colon): 4980 nM | TGI (HCT-15 colon): > 100000 nM | GI50 (SN12C renal): 73800 nM | TGI (SN12C renal): > 100000 nM | GI50 (MALME-3M melanoma): 20100 nM | TGI (MALME-3M melanoma): 96600 nM | GI50 (OVCAR-3 ovarian): 21000 nM | TGI (OVCAR-3 ovarian): > 100000 nM | GI50 (HT29 colon): 54600 nM | TGI (HT29 colon): > 100000 nM | GI50 (HS 578T breast): 70200 nM | TGI (HS 578T breast): > 100000 nM | GI50 (HOP-92 NSCLC): 14700 nM | TGI (HOP-92 NSCLC): > 100000 nM | GI50 (RXF 393 renal): 91600 nM | TGI (RXF 393 renal): > 100000 nM | GI50 (UACC-62 melanoma): 462 nM | TGI (UACC-62 melanoma): 8430 nM

CC[N+]1(C)CCC(O)(c2ccccc2)C(C(=O)c2ccccc2)C1 (centres undefined)
TGI (K-562 leukemia): 13200 nM | TGI (HCT-15 colon): 21800 nM | TGI (SN12C renal): 21600 nM | TGI (MALME-3M melanoma): 32600 nM | TGI (OVCAR-3 ovarian): 45700 nM | TGI (HT29 colon): 31800 nM | TGI (HS 578T breast): 74000 nM | TGI (HOP-92 NSCLC): 25400 nM | TGI (RXF 393 renal): 26600 nM | TGI (UACC-62 melanoma): 38600 nM

CC1(C)CC(=O)c2c(ccc(C(=O)C[C@H](N)CO)c2N)O1
GI50 (K-562 leukemia): 2270 nM and 251 nM | TGI (K-562 leukemia): 17500 nM and > 33300 nM | GI50 (HCT-15 colon): 768 nM and 114 nM | TGI (HCT-15 colon): 17500 nM and 9090 nM | TGI (SN12C renal): 17500 nM and > 33300 nM | GI50 (MALME-3M melanoma): > 33300 nM | TGI (MALME-3M melanoma): > 33300 nM | TGI (OVCAR-3 ovarian): 17500 nM and > 33300 nM | TGI (HT29 colon): 17500 nM and > 33300 nM | GI50 (HS 578T breast): > 33300 nM | TGI (HS 578T breast): > 33300 nM | GI50 (HOP-92 NSCLC): 7040 nM | TGI (HOP-92 NSCLC): 17500 nM | GI50 (RXF 393 renal): 4450 nM and 5140 nM | TGI (RXF 393 renal): 17500 nM and > 33300 nM | TGI (UACC-62 melanoma): 10500 nM and 10600 nM

COc1ccc2[nH]c(=O)c(/C=C/C(=O)/C=C/c3ccc(O)c(OC)c3)cc2c1
GI50 (K-562 leukemia): 1350 nM | TGI (K-562 leukemia): > 100000 nM | GI50 (HCT-15 colon): 1410 nM | TGI (HCT-15 colon): 3810 nM | GI50 (SN12C renal): 1890 nM | TGI (SN12C renal): 4490 nM | GI50 (MALME-3M melanoma): 2160 nM | TGI (MALME-3M melanoma): 5280 nM | GI50 (OVCAR-3 ovarian): 1180 nM | TGI (OVCAR-3 ovarian): 2550 nM | GI50 (HT29 colon): 777 nM | TGI (HT29 colon): 2120 nM | GI50 (HS 578T breast): 3810 nM | TGI (HS 578T breast): > 100000 nM | GI50 (HOP-92 NSCLC): 1840 nM | TGI (HOP-92 NSCLC): 5060 nM | GI50 (RXF 393 renal): 1500 nM | TGI (RXF 393 renal): 2900 nM | GI50 (UACC-62 melanoma): 1520 nM | TGI (UACC-62 melanoma): 3190 nM

O=C(O)c1ccc(NCc2nc3cc4ccccc4cc3[nH]2)cc1
TGI (K-562 leukemia): > 100000 nM | TGI (HCT-15 colon): > 100000 nM | TGI (SN12C renal): > 100000 nM | TGI (MALME-3M melanoma): 237 nM | TGI (OVCAR-3 ovarian): > 100000 nM | TGI (HT29 colon): > 100000 nM | TGI (HS 578T breast): > 100000 nM | TGI (HOP-92 NSCLC): > 100000 nM | TGI (RXF 393 renal): > 100000 nM | TGI (UACC-62 melanoma): > 100000 nM

C/C(=N\NC(=O)c1ccccc1O)c1cccc(/C(C)=N/NC(=O)c2ccccc2O)n1
TGI (K-562 leukemia): > 100000 nM | GI50 (HCT-15 colon): 568 nM | TGI (HCT-15 colon): > 100000 nM | GI50 (SN12C renal): 731 nM | TGI (SN12C renal): > 100000 nM | GI50 (MALME-3M melanoma): 522 nM | TGI (MALME-3M melanoma): 43900 nM and > 100000 nM | GI50 (OVCAR-3 ovarian): 1060 nM and 362 nM | TGI (OVCAR-3 ovarian): 24300 nM and > 53500 nM | TGI (HT29 colon): > 100000 nM | GI50 (HS 578T breast): > 100000 nM | TGI (HS 578T breast): > 100000 nM | GI50 (HOP-92 NSCLC): 908 nM | TGI (HOP-92 NSCLC): 67300 nM and 36800 nM | GI50 (RXF 393 renal): 5380 nM | TGI (RXF 393 renal): 32500 nM and 30600 nM | GI50 (UACC-62 melanoma): 614 nM | TGI (UACC-62 melanoma): 20600 nM and > 100000 nM

Nc1ncnc2c(C3OC(CO)C(O)C3O)[nH]nc12 (centres undefined)
GI50 (K-562 leukemia): 45.9 nM | TGI (K-562 leukemia): 2030 nM | GI50 (HCT-15 colon): 38.3 nM and 44.4 nM | TGI (HCT-15 colon): 156 nM | GI50 (SN12C renal): 161 nM | TGI (SN12C renal): 1680 nM and 1090 nM | GI50 (MALME-3M melanoma): 519 nM | TGI (MALME-3M melanoma): 5330 nM and 2750 nM | GI50 (OVCAR-3 ovarian): 168 nM and 71 nM | TGI (OVCAR-3 ovarian): 1790 nM and 377 nM | TGI (HT29 colon): 10500 nM and 4620 nM | GI50 (HS 578T breast): 533 nM | TGI (HS 578T breast): 5340 nM | GI50 (HOP-92 NSCLC): 202 nM | TGI (RXF 393 renal): 2920 nM and 1880 nM | TGI (UACC-62 melanoma): 10700 nM and 10200 nM
